Laboratory results: PubChem BioAssay (NCI)
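Briefly, cells in 96-well plates were exposed to five compound concentrations for 48 h, and endpoints were estimated by linear interpolation. At the GI50, growth is halved. Definition used: TGI = concentration required for complete inhibition of growth.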

Key:
Test in all cases: DTP human tumour cell line panel, 48 h
MDA-MB-435 = test system: MDA-MB-435
OVCAR-3 ovarian = test system: OVCAR-3 ovarian
SK-MEL-2 melanoma = test system: SK-MEL-2 melanoma
CAKI-1 renal = test system: CAKI-1 renal
RXF 393 renal = test system: RXF 393 renal
ACHN renal = test system: ACHN renal
NCI-H226 lung = test system: NCI-H226 lung
LOX IMVI melanoma = test system: LOX IMVI melanoma
SK-MEL-5 melanoma = test system: SK-MEL-5 melanoma
SF-295 CNS = test system: SF-295 CNS
SF-268 CNS = test system: SF-268 CNS
HS 578T breast = test system: HS 578T breast
HCT-15 colon = test system: HCT-15 colon
SW-620 colon = test system: SW-620 colon
OVCAR-5 ovarian = test system: OVCAR-5 ovarian
MCF7 breast = test system: MCF7 breast
HL-60(TB) leukemia = test system: HL-60(TB) leukemia
SNB-75 CNS = test system: SNB-75 CNS
OVCAR-8 ovarian = test system: OVCAR-8 ovarian
NCI/ADR-RES ovarian = test system: NCI/ADR-RES ovarian
HOP-62 NSCLC = test system: HOP-62 NSCLC
KM12 colon = test system: KM12 colon
MDA-MB-231 breast = test system: MDA-MB-231 breast
MOLT-4 leukemia = test system: MOLT-4 leukemia
SN12C renal = test system: SN12C renal
BT-549 breast = test system: BT-549 breast
HT29 colon = test system: HT29 colon
SF-539 CNS = test system: SF-539 CNS
SR leukemia = test system: SR leukemia
IGROV1 ovarian = test system: IGROV1 ovarian
UACC-257 melanoma = test system: UACC-257 melanoma
COLO 205 colon = test system: COLO 205 colon
RPMI-8226 leukemia = test system: RPMI-8226 leukemia
UO-31 renal = test system: UO-31 renal
NCI-H522 lung = test system: NCI-H522 lung
NCI-H460 lung = test system: NCI-H460 lung
UACC-62 melanoma = test system: UACC-62 melanoma
K-562 leukemia = test system: K-562 leukemia
NCI-H23 lung = test system: NCI-H23 lung
A549 NSCLC = test system: A549 NSCLC
PC-3 prostate = test system: PC-3 prostate
TK-10 renal = test system: TK-10 renal
DU-145 prostate = test system: DU-145 prostate
786-0 renal = test system: 786-0 renal
U251 CNS = test system: U251 CNS
SNB-19 CNS = test system: SNB-19 CNS
EKVX NSCLC = test system: EKVX NSCLC
HCT-116 colon = test system: HCT-116 colon
T-47D breast = test system: T-47D breast
MALME-3M melanoma = test system: MALME-3M melanoma
OVCAR-4 ovarian = test system: OVCAR-4 ovarian
CCRF-CEM leukemia = test system: CCRF-CEM leukemia
A498 renal = test system: A498 renal
HCC-2998 colon = test system: HCC-2998 colon
SK-OV-3 ovarian = test system: SK-OV-3 ovarian
M14 melanoma = test system: M14 melanoma
HOP-92 NSCLC = test system: HOP-92 NSCLC
SK-MEL-28 melanoma = test system: SK-MEL-28 melanoma

## O=C1/C(=C/c2cccc(Cl)c2Cl)N=C(c2ccccc2)N1C1CC1
MDA-MB-435
  GI50: 11.1 µM
  TGI: 24.1 µM
OVCAR-3 ovarian
  GI50: 22.1 µM
  TGI: > 50 µM
SK-MEL-2 melanoma
  GI50: 18.5 µM
  TGI: > 50 µM
CAKI-1 renal
  GI50: 14.8 µM
  TGI: 39.5 µM
RXF 393 renal
  GI50: 23.9 µM
  TGI: > 50 µM
ACHN renal
  GI50: 16.7 µM
  TGI: > 50 µM
NCI-H226 lung
  GI50: 9.54 µM
  TGI: 23.2 µM
LOX IMVI melanoma
  GI50: 7.11 µM
  TGI: 17.4 µM
SK-MEL-5 melanoma
  GI50: 11.4 µM
  TGI: 24.7 µM
SF-295 CNS
  GI50: 12.7 µM
  TGI: 31.3 µM
SF-268 CNS
  GI50: 10.3 µM
  TGI: 22.3 µM
HS 578T breast
  GI50: 16.6 µM
  TGI: 39.5 µM
HCT-15 colon
  GI50: 12.3 µM
  TGI: 39 µM
SW-620 colon
  GI50: 26.7 µM
  TGI: > 50 µM
OVCAR-5 ovarian
  GI50: 10.4 µM
  TGI: 21.1 µM
MCF7 breast
  GI50: 7.98 µM
  TGI: 19.2 µM
HL-60(TB) leukemia
  GI50: 15.6 µM
  TGI: 41.4 µM
SNB-75 CNS
  GI50: 6.06 µM
  TGI: 15.9 µM
OVCAR-8 ovarian
  GI50: 26.5 µM
  TGI: > 50 µM
NCI/ADR-RES ovarian
  GI50: 11.8 µM
  TGI: 31.1 µM
HOP-62 NSCLC
  GI50: 8.37 µM
  TGI: 16.5 µM
KM12 colon
  GI50: 11.9 µM
  TGI: 34.4 µM
MDA-MB-231 breast
  GI50: 8.05 µM
  TGI: 18.3 µM
MOLT-4 leukemia
  GI50: 19.2 µM
  TGI: > 50 µM
SN12C renal
  GI50: 8.62 µM
  TGI: 17.5 µM
BT-549 breast
  GI50: 9.84 µM
  TGI: 24.1 µM
HT29 colon
  GI50: 18.2 µM
  TGI: > 50 µM
SF-539 CNS
  GI50: 10.3 µM
  TGI: 22.3 µM
SR leukemia
  GI50: 21.5 µM
  TGI: > 50 µM
IGROV1 ovarian
  GI50: 19.7 µM
  TGI: > 50 µM
UACC-257 melanoma
  GI50: 12.2 µM
  TGI: 26.2 µM
COLO 205 colon
  GI50: 15.1 µM
  TGI: > 50 µM
RPMI-8226 leukemia
  GI50: 3.88 µM
  TGI: 14.5 µM
UO-31 renal
  GI50: 28.5 µM
  TGI: > 50 µM
NCI-H522 lung
  GI50: 19.8 µM
  TGI: > 50 µM
NCI-H460 lung
  GI50: 15.3 µM
  TGI: > 50 µM
UACC-62 melanoma
  GI50: 9.2 µM
  TGI: 19.5 µM
K-562 leukemia
  GI50: 13.5 µM
  TGI: > 50 µM
NCI-H23 lung
  GI50: 9.35 µM
  TGI: 19.5 µM
A549 NSCLC
  GI50: 19.7 µM
  TGI: > 50 µM
PC-3 prostate
  GI50: 8.85 µM
  TGI: 17.2 µM
TK-10 renal
  GI50: 10.7 µM
  TGI: 27.7 µM
DU-145 prostate
  GI50: 12.1 µM
  TGI: 29.4 µM
786-0 renal
  GI50: 7.29 µM
  TGI: 14.4 µM
U251 CNS
  GI50: 12.6 µM
  TGI: 34.7 µM
SNB-19 CNS
  GI50: 12.7 µM
  TGI: 33.2 µM
EKVX NSCLC
  GI50: 9.9 µM
  TGI: 22.2 µM
HCT-116 colon
  GI50: 8.98 µM
  TGI: 18.9 µM

## CCn1c2ccccc2c2cc(NC(=O)Nc3ccc([N+](=O)[O-])cc3C)ccc21
T-47D breast
  GI50: 2.34 µM
  TGI: 9.54 µM
MDA-MB-435
  GI50: 2.62 µM
  TGI: 23.5 µM
OVCAR-3 ovarian
  GI50: 3.39 µM
  TGI: 19.4 µM
SK-MEL-2 melanoma
  GI50: 3.33 µM
  TGI: 15.4 µM
CAKI-1 renal
  GI50: 4.35 µM
  TGI: 17.5 µM
RXF 393 renal
  GI50: 1.36 µM
  TGI: 6.27 µM
MALME-3M melanoma
  GI50: 2.28 µM
  TGI: 13 µM
ACHN renal
  GI50: 3.56 µM
  TGI: 14.9 µM
NCI-H226 lung
  GI50: 4.4 µM
  TGI: 29.2 µM
OVCAR-4 ovarian
  GI50: 5.48 µM
  TGI: 85 µM
LOX IMVI melanoma
  GI50: 4.98 µM
  TGI: > 100 µM
SK-MEL-5 melanoma
  GI50: 14.3 µM
  TGI: > 100 µM
SF-295 CNS
  GI50: 2.29 µM
  TGI: 9.13 µM
SF-268 CNS
  GI50: 12.2 µM
  TGI: > 100 µM
CCRF-CEM leukemia
  GI50: 1.62 µM
  TGI: 4 µM
HS 578T breast
  GI50: 2.2 µM
  TGI: 8 µM
HCT-15 colon
  GI50: 2.29 µM
  TGI: 37.3 µM
A498 renal
  GI50: 11.5 µM
  TGI: 64.1 µM
HCC-2998 colon
  GI50: 4.25 µM
  TGI: > 100 µM
SW-620 colon
  GI50: 3.38 µM
  TGI: 48.1 µM
OVCAR-5 ovarian
  GI50: 22.5 µM
  TGI: > 100 µM
MCF7 breast
  GI50: 3.7 µM
  TGI: > 100 µM
HL-60(TB) leukemia
  GI50: 1.06 µM
  TGI: 5.85 µM
SNB-75 CNS
  GI50: 3.05 µM
  TGI: 17.6 µM
OVCAR-8 ovarian
  GI50: 4.61 µM
  TGI: 37.7 µM
NCI/ADR-RES ovarian
  GI50: 4.65 µM
  TGI: > 100 µM
HOP-62 NSCLC
  GI50: 5.02 µM
  TGI: 55.2 µM
KM12 colon
  GI50: 2.69 µM
  TGI: 16.8 µM
MDA-MB-231 breast
  GI50: 3.66 µM
  TGI: 24.6 µM
MOLT-4 leukemia
  GI50: 1.29 µM
  TGI: 3.85 µM
SN12C renal
  GI50: 9.3 µM
  TGI: > 100 µM
BT-549 breast
  GI50: 2.02 µM
  TGI: 6.46 µM
HT29 colon
  GI50: 3.01 µM
  TGI: 15.6 µM
SF-539 CNS
  GI50: 1.83 µM
  TGI: 4.41 µM
IGROV1 ovarian
  GI50: 3.38 µM
  TGI: 14.1 µM
SK-OV-3 ovarian
  GI50: 18.1 µM
  TGI: > 100 µM
UACC-257 melanoma
  GI50: 16.6 µM
  TGI: 68.7 µM
COLO 205 colon
  GI50: 2.82 µM
  TGI: 10.3 µM
M14 melanoma
  GI50: 6.21 µM
  TGI: 64.1 µM
HOP-92 NSCLC
  GI50: 1.27 µM
  TGI: 4.64 µM
RPMI-8226 leukemia
  GI50: 1.4 µM
  TGI: 4.01 µM
UO-31 renal
  GI50: 2.68 µM
  TGI: 17.1 µM
NCI-H522 lung
  GI50: 1.96 µM
  TGI: 7.64 µM
NCI-H460 lung
  GI50: 3.09 µM
  TGI: 14.8 µM
UACC-62 melanoma
  GI50: 5.76 µM
  TGI: > 100 µM
NCI-H23 lung
  GI50: 3.9 µM
  TGI: 30.6 µM
A549 NSCLC
  GI50: 3.01 µM
  TGI: 15.6 µM
PC-3 prostate
  GI50: 2.73 µM
  TGI: 10.8 µM
TK-10 renal
  GI50: 3.62 µM
  TGI: 15.3 µM
DU-145 prostate
  GI50: 5.38 µM
  TGI: > 100 µM
786-0 renal
  GI50: 4.61 µM
  TGI: 84.9 µM
U251 CNS
  GI50: 3.85 µM
  TGI: 21.6 µM
SK-MEL-28 melanoma
  GI50: 5.33 µM
  TGI: 26.2 µM
SNB-19 CNS
  GI50: 8.95 µM
  TGI: > 100 µM
EKVX NSCLC
  GI50: 5.35 µM
  TGI: > 100 µM
HCT-116 colon
  GI50: 3.17 µM
  TGI: 17.4 µM
